Results taken from patent US10501518B2 (priority 2013, dated 2019).
Where two headings read alike, the source gives them in different places. Starred links: 1 amine or outer side, 2 acyl side, 3 side chain; linkers in the order of their positions; H or OH if unused. Non-standard residues stand in square brackets, D forms with d. Residues, ends and D or L forms follow the SMILES beside them. *: point of attachment. NH(1S,2S-2-CONH2-cPent) = NC(=O)[C@H]1CCC[C@@H]1N*; β3hW = N[C@H](CC(=O)O)Cc1c[nH]c2ccccc12; X12 = O=C([C@H]1CCC[C@@H]1N[*:1])[*:2]; X13 = O=C([C@H]1CNC[C@@H]1N[*:1])[*:2]; β3hE = N[C@@H](CCC(=O)O)CC(=O)O; β3hF = N[C@H](CC(=O)O)Cc1ccccc1; β3hN = NC(=O)C[C@H](N)CC(=O)O; β3hK = NCCCC[C@H](N)CC(=O)O; β3hM = CSCC[C@H](N)CC(=O)O; β3hD = NC(CC(=O)O)CC(=O)O

Key:
WT human PTHR-1 = target: T1, WT human PTHR-1 (Homo sapiens, UniProt Q03431); test: cAMP GloSensor dose-response in GP-2.3 cells expressing human PTHR-1; type: cell-based
T1 construct: bioactivity of the resulting compound in full-length hPTHR-1 and a truncated version; expressed in transfected cells
T1 sequence (Q03431 27-593): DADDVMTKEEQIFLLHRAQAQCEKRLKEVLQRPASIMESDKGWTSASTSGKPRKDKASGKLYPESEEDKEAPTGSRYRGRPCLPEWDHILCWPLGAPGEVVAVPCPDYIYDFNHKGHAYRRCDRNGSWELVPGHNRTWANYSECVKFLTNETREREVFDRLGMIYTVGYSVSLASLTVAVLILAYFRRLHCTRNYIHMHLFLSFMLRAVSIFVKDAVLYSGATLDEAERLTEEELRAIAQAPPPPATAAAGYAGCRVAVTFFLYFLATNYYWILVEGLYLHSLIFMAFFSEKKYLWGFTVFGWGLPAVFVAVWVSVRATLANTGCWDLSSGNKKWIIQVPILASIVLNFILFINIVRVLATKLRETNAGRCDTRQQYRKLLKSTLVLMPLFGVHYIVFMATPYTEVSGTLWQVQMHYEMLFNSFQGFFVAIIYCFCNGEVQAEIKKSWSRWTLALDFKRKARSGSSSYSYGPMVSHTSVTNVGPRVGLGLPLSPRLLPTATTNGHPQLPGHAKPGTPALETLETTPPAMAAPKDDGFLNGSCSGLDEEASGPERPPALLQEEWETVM
Outline: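 Confluent cells preloaded with 0.5 mM d-luciferin at room temperature until luminescence baseline stabilised (30 min), then given varying agonist concentrations. Luminescence time course recorded after α/β-peptide addition. Means ±SEM of n>4 experiments, each in duplicate.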

WT rat PTHR-1 = target: T2, WT rat PTHR-1 (Rattus norvegicus, UniProt P25961); test: cAMP GloSensor dose-response in GR-35 cells expressing rat PTHR-1; type: cell-based; conditions: Table 7
T2 construct: expressed in transfected cells
T2 sequence (P25961 27-591): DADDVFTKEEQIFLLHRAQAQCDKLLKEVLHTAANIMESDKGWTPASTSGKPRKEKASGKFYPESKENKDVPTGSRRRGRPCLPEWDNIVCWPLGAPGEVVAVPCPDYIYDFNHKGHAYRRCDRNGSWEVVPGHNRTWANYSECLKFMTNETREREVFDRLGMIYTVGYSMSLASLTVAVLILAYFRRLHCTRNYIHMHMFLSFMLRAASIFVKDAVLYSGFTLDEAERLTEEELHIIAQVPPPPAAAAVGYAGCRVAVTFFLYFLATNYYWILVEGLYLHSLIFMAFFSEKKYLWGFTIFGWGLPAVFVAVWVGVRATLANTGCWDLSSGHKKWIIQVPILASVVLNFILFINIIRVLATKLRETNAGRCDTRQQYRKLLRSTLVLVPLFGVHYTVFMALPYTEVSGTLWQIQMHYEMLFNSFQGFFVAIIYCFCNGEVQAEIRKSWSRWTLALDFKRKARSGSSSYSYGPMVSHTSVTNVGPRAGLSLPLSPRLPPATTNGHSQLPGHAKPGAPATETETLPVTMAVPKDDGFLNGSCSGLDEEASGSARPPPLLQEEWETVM

R^0 form of rat PTHR-1 = target: T3, R^0 form of rat PTHR-1 (Rattus norvegicus, UniProt P25961); test: Radio-ligand competition binding to R^0 form of rat PTHR-1; conditions: Table 5; ratio of R^0 to RG IC50, rat PTHR-1
T3 construct: expressed in transfected cells; host or cells: COS-7
T3 sequence (P25961 27-591): T2 sequence (P25961 27-591)
Description: (§1) Data are means (±SEM) of n≥4 experiments, each performed in duplicate.

R^0 form of human PTHR-1 = target: T4, R^0 form of human PTHR-1 (Homo sapiens, UniProt Q03431); test: Radio-ligand competition binding to R^0 form of human PTHR-1 (COS-7 membranes, 125I-PTH(1-34) tracer, GTPγS)
T4 construct: expressed in transfected cells; host or cells: COS-7
T4 sequence (Q03431 27-593): T1 sequence (Q03431 27-593)
Description: as §1

RG form of human PTHR-1 = target: T5, RG form of human PTHR-1 (Homo sapiens, UniProt Q03431); test: Radio-ligand competition binding to RG form of human PTHR-1 (COS-7 membranes, 125I-M-PTH(1-15) tracer, high affinity Gαs mutant)
T5 construct: expressed in transfected cells; host or cells: COS-7
T5 sequence (Q03431 27-593): T1 sequence (Q03431 27-593)
Description: as §1

RG form of rat PTHR-1 = target: T6, RG form of rat PTHR-1 (Rattus norvegicus, UniProt P25961); test: Radio-ligand competition binding to RG form of rat PTHR-1; conditions: Table 5; rat PTHR-1; mean ± SEM; read-out: RG -log (IC50) (converted)
T6 construct: expressed in transfected cells; host or cells: COS-7
T6 sequence (P25961 27-591): T2 sequence (P25961 27-591)
Description: as §1

PTHR = target: T7, PTHR (Homo sapiens, UniProt Q03431); test: cAMP induction potency, N-terminal modifications and cyclic constraints (Tables 9, 10, 13); type: cell-based; conditions: Table 9
T7 construct: expressed in transfected cells
T7 sequence (Q03431 27-593): T1 sequence (Q03431 27-593)
Description: For cAMP dose-response assays, monolayers of confluent HEK 293 cells were pre-incubated with buffer containing d-luciferin (0.5 mM) in 96 well plates at room temperature until a stable baseline level of luminescence was established (30 min). Varying concentrations of agonist were then added, and the time course of luminescence response was recorded using a Perkin Elmer plate reader following α/β-peptide addition.

[1] = Calcemic response in mice after subcutaneous injection; type: in vivo; conditions: 20 nmol/kg
Description: Compound concentrations were determined by submitting plasma to a cAMP GloSensor assay, quantification of luminescence readout, and conversion to peptide concentration via standard curve. […] See also FIGS. 12A, 12B and 12C.
Mice (C57BL/6, male, age 9-12 weeks) were treated in accordance with the ethical guidelines adopted by Massachusetts General Hospital. […] Blood was withdrawn just prior to injection (t=0) or at times thereafter. Tail vein blood was collected and immediately used for analysis. Blood Ca^2+ concentration was measured with a Chiron Diagnostics model 634 Ca^2+/pH analyzer.

## CC[C@H](C)[C@H](NC(=O)[C@H](CCC(=O)O)NC(=O)[C@H](CO)NC(=O)[C@@H](NC(=O)[C@@H](N)CO)C(C)C)C(=O)N[C@@H](CCC(N)=O)C(=O)N[C@@H](CC(C)C)C(=O)N[C@@H](CCSC)C(=O)N[C@@H](Cc1c[nH]cn1)C(=O)N[C@@H](CC(N)=O)CC(=O)N[C@@H](CC(C)C)C(=O)NCC(=O)N[C@@H](CCCCN)C(=O)N[C@H](CC(=O)N[C@@H](CC(C)C)C(=O)N[C@@H](CC(N)=O)C(=O)N[C@@H](CO)C(=O)N[C@@H](CCSC)CC(=O)N[C@@H](CCC(=O)O)C(=O)N[C@@H](CCCNC(=N)N)C(=O)N[C@H](C(=O)N[C@@H](CCC(=O)O)CC(=O)N[C@@H](Cc1c[nH]c2ccccc12)C(=O)N[C@@H](CC(C)C)C(=O)N[C@@H](CCCNC(=N)N)C(=O)N[C@@H](CCCCN)CC(=O)N[C@@H](CCCCN)C(=O)N[C@@H](CC(C)C)C(=O)N[C@@H](CCC(N)=O)C(=O)N[C@@H](CC(=O)O)CC(=O)N[C@H](C(=O)N[C@@H](Cc1c[nH]cn1)C(=O)N[C@@H](CC(N)=O)C(=O)N[C@H](CC(N)=O)Cc1ccccc1)C(C)C)C(C)C)Cc1c[nH]c2ccccc12 [D7] (H-SVSEIQLMH[β3hN]LGK[β3hW]LNS[β3hM]ERV[β3hE]WLR[β3hK]KLQ[β3hD]VHN[β3hF]-NH2)
WT human PTHR-1
  EC50: 0.39 nM
WT human PTHR-1; Table 1, luminescence counts per second relative to PTH(1-34), 12-16 minutes after ligand addition
  cAMP (hPTHR-1) Max: 0.85
WT human PTHR-1; Table 6, EC50 relative to PTH(1-34)
  Fold nM PTH(1-34): 2.26
WT human PTHR-1; Table 6, GP-2.3 cells, 12-16 minutes after ligand addition, mean ± SEM
  Max: 184 ± 18 luminescence counts per second × 10^−3
WT rat PTHR-1; EC50 relative to PTH(1-34)
  Fold nM PTH(1-34): 3.89
WT rat PTHR-1; GR-35 cells, 12-16 minutes after ligand addition, mean ± SEM
  Max: 40 ± 18 luminescence counts per second × 10−3
WT rat PTHR-1; GR-35 cells, read-out: EC50
  EC50: 1.62 nM
R^0 form of rat PTHR-1
  R^0/RG: 7
R^0 form of human PTHR-1
  IC50: 3.5 nM
R^0 form of human PTHR-1; Table 4, ratio of R^0 to RG IC50, human PTHR-1
  R^0/RG: 15
RG form of human PTHR-1
  IC50: 0.24 nM
RG form of human PTHR-1; Table 4, human PTHR-1, mean ± SEM, read-out: RG -log (IC50) (converted)
  IC50: 0.234 nM
RG form of rat PTHR-1
  IC50: 2.04 nM

## CC[C@H](C)[C@H](NC(=O)[C@H](CCC(=O)O)NC(=O)[C@H](CO)NC(=O)[C@@H](NC(=O)[C@@H](N)CO)C(C)C)C(=O)N[C@@H](CCC(N)=O)C(=O)N[C@@H](CC(C)C)C(=O)N[C@@H](CCSC)C(=O)N[C@@H](Cc1c[nH]cn1)C(=O)N[C@@H](CC(N)=O)C(=O)N[C@@H](CC(C)C)C(=O)NCC(=O)N[C@@H](CCCCN)C(=O)N[C@H]1CCC[C@@H]1C(=O)N[C@@H](CC(C)C)C(=O)N[C@@H](CC(N)=O)C(=O)N[C@@H](CO)C(=O)N[C@H]1CCC[C@@H]1C(=O)N[C@@H](CCC(=O)O)C(=O)N[C@@H](CCCNC(=N)N)C(=O)N[C@H](C(=O)N[C@H]1CNC[C@@H]1C(=O)N[C@@H](Cc1c[nH]c2ccccc12)C(=O)N[C@@H](CC(C)C)C(=O)N[C@@H](CCCNC(=N)N)C(=O)N[C@H]1CNC[C@@H]1C(=O)N[C@@H](CCCCN)C(=O)N[C@@H](CC(C)C)C(=O)N[C@@H](CCC(N)=O)C(=O)N[C@H]1CCC[C@@H]1C(=O)N[C@H](C(=O)N[C@@H](Cc1c[nH]cn1)C(=O)N[C@@H](CC(N)=O)C(=O)N[C@H]1CCC[C@@H]1C(N)=O)C(C)C)C(C)C [FcycD6, SVSEIQLMHNLGKXLNSXERVZWLRZKLQXVHNX-NH2] (H-SVSEIQLMHNLGK[X12]LNS[X12]ERV[X13]WLR[X13]KLQ[X12]VHN-{NH(1S,2S-2-CONH2-cPent)}; N-terminus assumed)
PTHR
  Fold PTH: 3.2
PTHR; read-out: EC50, nM (cAMP induction potency)
  EC50: 0.26 ± 0.05 nM
[1]
  calcemic response (blood Ca^2+ concentration): very marked activity to increase calcium blood levels
